Values quoted from earlier work, collected in US6653081B2, “Methods for monitoring antiretroviral therapy and guiding therapeutic decision in the treatment of HIV/AIDS” (ViroLogic, Inc., priority 2000, dated 2003).

Tested on: codon 181 mutant HIV-1
Conditions: cited from earlier work

Row | SMILES | susceptibility / activity in the presence of the Y181C mutation
1 | CCc1cc(CCc2nc3ccccc3o2)c(=O)[nH]c1C [L-696,229] | reduced susceptibility
2 | CCc1cc(NCc2nc3c(Cl)ccc(Cl)c3o2)c(O)nc1C [L-697,661] | reduced susceptibility
